Test system: Mus musculus
Assay: Compound was intravenously injected into Swiss Webstar mice tail vein, the sleeping time was recorded as the time elapsed from the loss of righting reflex
Format: functional

Compound	Sleeping time
NC(=O)C1=CN(CCC[C@H](NC(=O)[C@@H]2CCC(=O)N2)C(=O)N2CCC[C@H]2C(N)=O)C=CC1	~59 min
NC(=O)C1=CN(CCCCC(NC(=O)[C@@H]2CCC(=O)N2)C(=O)N2CCC[C@H]2C(N)=O)C=CC1 (some centres undefined)	~47 min
NC(=O)C1=CN(C[C@H](NC(=O)[C@@H]2CCC(=O)N2)C(=O)N2CCC[C@H]2C(N)=O)C=CC1	19.3 min
NC(=O)C1=CN(CCC(NC(=O)[C@@H]2CCC(=O)N2)C(=O)N2CCC[C@H]2C(N)=O)C=CC1 (some centres undefined)	~45 min
